Assay results reported in EP0238060B1, “Cephalosporin derivatives, processes for their preparation and antibacterial agents” (Banyu Pharmaceutical Co., Ltd., priority 1986, dated 1987).
In brackets after ≈: the same amount, converted by molar mass. Read-outs that look alike come from different tables or passages of the source.

Assays:
Assay in all cases: In vitro antibacterial activity, agar plate dilution method (MIC)
[1] = system: Ps.cepacia 23; assay type: cell-based, Pseudomonas cepacia; settings: read-out: Minimum Inhibitory Concentration (MIC: µg/ml)
Experimental: (§1) The in vitro antibacterial activities of the compounds of the present invention against various microorganisms, were measured by the following agar plate dilution method. One platinum loopfull of each test microorganism incubated overnight in Mueller Hinton broth, was inoculated to Mueller Hinton agar (inoculum size: l0⁶ CFU/ml). Such culture media containing various antibiotics in various concentrations were prepared. After incubation at 37°C for l6 hours, the minimum inhibitory concentrations (MIC: µg/ml) were measured. As comparative compounds, Cefotaxime, Ceftazidime and the compounds of Reference Examples l to 4 were employed.

[2] = system: Ps.maltophilia GN 12873; assay type: cell-based, Pseudomonas maltophilia; settings: Stenotrophomonas maltophilia, read-out: Minimum Inhibitory Concentration (MIC: µg/ml)
Experimental: as §1

[3] = system: C.freundii GN346/16; assay type: cell-based; settings: Citrobacter freundii, read-out: Minimum Inhibitory Concentration (MIC: µg/ml)
Experimental: as §1

[4] = system: P.vulgaris HX-19; assay type: cell-based; settings: Proteus vulgaris, read-out: Minimum Inhibitory Concentration (MIC: µg/ml)
Experimental: as §1

[5] = system: M.morganii GN5407; assay type: cell-based; settings: Morganella morganii, read-out: Minimum Inhibitory Concentration (MIC: µg/ml)
Experimental: as §1

[6] = system: P.vulgaris No. 33; assay type: cell-based; settings: Proteus vulgaris, NO.33, 16 h, read-out: Minimum Inhibitory Concentration (MIC: µg/ml)
Experimental: as §1

[7] = system: E.coli GN5482; assay type: cell-based; settings: Escherichia coli, read-out: Minimum Inhibitory Concentration (MIC: µg/ml)
Experimental: as §1

[8] = system: K.pneumoniae No. 42; assay type: cell-based; settings: Klebsiella pneumoniae, read-out: Minimum Inhibitory Concentration (MIC: µg/ml)
Experimental: as §1

[9] = system: Ps.aeruginosa AKR17; assay type: cell-based; settings: Pseudomonas aeruginosa; Ps.aeruginosa AKR17; Mueller Hinton agar, inoculum 10⁶ CFU/ml, 37°C, 16 hours; read-out: Minimum Inhibitory Concentration (MIC: µg/ml)
Experimental: as §1

[10] = system: S.aureus 209P NIHJ-JC1; assay type: cell-based; settings: Staphylococcus aureus, read-out: Minimum Inhibitory Concentration (MIC: µg/ml)
Experimental: as §1

[11] = system: C.freundii GN346; assay type: cell-based; settings: Citrobacter freundii, read-out: Minimum Inhibitory Concentration (MIC: µg/ml)
Experimental: as §1

[12] = system: E.coli CSH(RE45); assay type: cell-based; settings: Escherichia coli, 16 h, read-out: Minimum Inhibitory Concentration (MIC: µg/ml)
Experimental: as §1

[13] = system: A.calcoaceticus No. 4; assay type: cell-based; settings: Acinetobacter calcoaceticus, read-out: Minimum Inhibitory Concentration (MIC: µg/ml)
Experimental: as §1

[14] = system: S.marcescens IAM 1184; assay type: cell-based; settings: Serratia marcescens, IAM1184, 16 h, read-out: Minimum Inhibitory Concentration (MIC: µg/ml)
Experimental: as §1

[15] = system: S.aureus JS1; assay type: cell-based; settings: Staphylococcus aureus, read-out: Minimum Inhibitory Concentration (MIC: µg/ml)
Experimental: as §1

[16] = system: K.oxytoca GN10650; assay type: cell-based; settings: Klebsiella oxytoca, read-out: Minimum Inhibitory Concentration (MIC: µg/ml)
Experimental: as §1

[17] = system: K.pneumoniae PCI-602; assay type: cell-based; settings: Klebsiella pneumoniae, read-out: Minimum Inhibitory Concentration (MIC: µg/ml)
Experimental: as §1

[18] = system: E.coli NIHJ JC2; assay type: cell-based; settings: Escherichia coli, read-out: Minimum Inhibitory Concentration (MIC: µg/ml)
Experimental: as §1

[19] = system: E.cloacae 963; assay type: cell-based; settings: Enterobacter cloacae, 963, 16 h, read-out: Minimum Inhibitory Concentration (MIC: µg/ml)
Experimental: as §1

[20] = system: M.luteus ATCC9341; assay type: cell-based; settings: Micrococcus luteus, read-out: Minimum Inhibitory Concentration (MIC: µg/ml)
Experimental: as §1

[21] = system: Ps.aeruginosa IFO3445; assay type: cell-based; settings: Pseudomonas aeruginosa; Ps.aeruginosa IFO3445; Mueller Hinton agar, inoculum 10⁶ CFU/ml, 37°C, 16 hours; read-out: Minimum Inhibitory Concentration (MIC: µg/ml)
Experimental: as §1

[22] = system: S.epidermidis IAM12012; assay type: cell-based; settings: Staphylococcus epidermidis, read-out: Minimum Inhibitory Concentration (MIC: µg/ml)
Experimental: as §1

[23] = system: E.coli CSH2 (RK1); assay type: cell-based; settings: Escherichia coli, 16 h, read-out: Minimum Inhibitory Concentration (MIC: µg/ml)
Experimental: as §1

[24] = system: S.aureus BB5703; assay type: cell-based; settings: Staphylococcus aureus, read-out: Minimum Inhibitory Concentration (MIC: µg/ml)
Experimental: as §1

[25] = system: E.cloacae Nek 39; assay type: cell-based; settings: Enterobacter cloacae, read-out: Minimum Inhibitory Concentration (MIC: µg/ml)
Experimental: as §1

[26] = system: Ps.aeruginosa AK 109; assay type: cell-based; settings: Pseudomonas aeruginosa, read-out: Minimum Inhibitory Concentration (MIC: µg/ml)
Experimental: as §1

[27] = system: S.marcescens No. 16-2; assay type: cell-based; settings: Serratia marcescens, read-out: Minimum Inhibitory Concentration (MIC: µg/ml)
Experimental: as §1

`CC(C)(O/N=C(\C(=O)N[C@@H]1C(=O)N2C(C(=O)[O-])=C(C[n+]3ccccc3)CS[C@H]12)c1csc(N)n1)C(=O)O` [Ceftazidime, reference compound] showed an MIC ([1]; Burkholderia cepacia, 23, 16 h) of 1.56 µg/mL (≈ 2.85 µM), an MIC ([2]; GN12873, 16 h) of 100 µg/mL (≈ 183 µM) and an MIC ([3]; GN346, 16 h) of 0.2 µg/mL (≈ 0.366 µM). It also gave an MIC ([4]; HX19, 16 h) of 0.025 µg/mL (≈ 0.0457 µM), an MIC ([5]; GN5407, 16 h) of 0.1 µg/mL (≈ 0.183 µM) and an MIC [6] of 0.05 µg/mL (≈ 0.0915 µM). The MIC ([7]; GN5482, 16 h) was 3.12 µg/mL (≈ 5.71 µM), the MIC ([8]; NO.42, 16 h) was 0.39 µg/mL (≈ 0.714 µM) and the MIC [9] was > 100 µg/mL. The MIC ([10]; 16 h) was 6.25 µg/mL (≈ 11.4 µM), the MIC ([11]; GN346, 16 h) was 25 µg/mL (≈ 45.7 µM) and the MIC [12] was 0.1 µg/mL (≈ 0.183 µM). For the same compound, the MIC ([13]; NO.4, 16 h) was 6.25 µg/mL (≈ 11.4 µM), the MIC [14] was 0.025 µg/mL (≈ 0.0457 µM) and the MIC ([15]; JS1, 16 h) was 50 µg/mL (≈ 91.5 µM). It also gave an MIC ([16]; GN10650, 16 h) of 0.2 µg/mL (≈ 0.366 µM), an MIC ([17]; PCI602, 16 h) of 0.125 µg/mL (≈ 0.229 µM) and an MIC ([18]; NIHJJC2, 16 h) of 0.2 µg/mL (≈ 0.366 µM). It also gave an MIC [19] of 0.2 µg/mL (≈ 0.366 µM), an MIC ([20]; ATCC9341, 16 h) of 1.56 µg/mL (≈ 2.85 µM) and an MIC [21] of 0.39 µg/mL (≈ 0.714 µM). For the same compound, the MIC ([22]; IAM12012, 16 h) was 3.12 µg/mL (≈ 5.71 µM), the MIC [23] was 0.1 µg/mL (≈ 0.183 µM) and the MIC ([24]; BB5703, 16 h) was 25 µg/mL (≈ 45.7 µM). For the same compound, the MIC ([25]; NEK39, 16 h) was 1.56 µg/mL (≈ 2.85 µM), the MIC ([26]; AK109, 16 h) was 1.56 µg/mL (≈ 2.85 µM) and the MIC ([27]; NO.162, 16 h) was 1.56 µg/mL (≈ 2.85 µM).

`C=C(O/N=C(\C(=O)NC1C(=O)N2C(C(=O)[O-])=C(C[n+]3ccc4cc(O)c(O)cc4c3)CSC12)c1csc(N)n1)C(=O)O` (stereo not drawn) [Ex. 6, 7-[2-(2-aminothiazol-4-yl)-2-(l-carboxy-l-vinyloxyimino)acetamido]-3-(6,7-dihydroxy-2-isoquinolinio)methyl-3-cephem-4-carboxylate] showed an MIC ([1]; Burkholderia cepacia, Ps.cepacia 23, Mueller Hinton agar, inoculum 10⁶ CFU/ml, 37°C, 16 hours) of 0.025 µg/mL (≈ 0.0408 µM), an MIC ([2]; GN12873, Ps.maltophilia GN 12873 (β-Lactamase-producing strain), Mueller Hinton agar, inoculum 10⁶ CFU/ml, 37°C, 16 hours) of 25 µg/mL (≈ 40.8 µM) and an MIC ([3]; C.freundii GN346/16, Mueller Hinton agar, inoculum 10⁶ CFU/ml, 37°C, 16 hours) of 1.56 µg/mL (≈ 2.55 µM). For the same compound, the MIC ([4]; HX19, P.vulgaris HX-19, Mueller Hinton agar, inoculum 10⁶ CFU/ml, 37°C, 16 hours) was < 0.006 µg/mL, the MIC ([5]; M.morganii GN5407 (β-Lactamase-producing strain), Mueller Hinton agar, inoculum 10⁶ CFU/ml, 37°C, 16 hours) was 0.05 µg/mL (≈ 0.0816 µM) and the MIC [6] was 0.0125 µg/mL (≈ 0.0204 µM). For the same compound, the MIC ([7]; E.coli GN5482 (β-Lactamase-producing strain), Mueller Hinton agar, inoculum 10⁶ CFU/ml, 37°C, 16 hours) was 0.2 µg/mL (≈ 0.326 µM), the MIC ([8]; K.pneumoniae No. 42 (β-Lactamase-producing strain), Mueller Hinton agar, inoculum 10⁶ CFU/ml, 37°C, 16 hours) was 0.025 µg/mL (≈ 0.0408 µM) and the MIC [9] was 1.56 µg/mL (≈ 2.55 µM). It also gave an MIC ([10]; S.aureus 209P NIHJ-JC1, Mueller Hinton agar, inoculum 10⁶ CFU/ml, 37°C, 16 hours) of 25 µg/mL (≈ 40.8 µM), an MIC ([11]; C.freundii GN346 (β-Lactamase-producing strain), Mueller Hinton agar, inoculum 10⁶ CFU/ml, 37°C, 16 hours) of 50 µg/mL (≈ 81.6 µM) and an MIC [12] of 0.025 µg/mL (≈ 0.0408 µM). For the same compound, the MIC ([13]; A.calcoaceticus No. 4, Mueller Hinton agar, inoculum 10⁶ CFU/ml, 37°C, 16 hours) was 0.2 µg/mL (≈ 0.326 µM), the MIC [14] was 0.0125 µg/mL (≈ 0.0204 µM) and the MIC ([15]; S.aureus JS1 (β-Lactamase-producing strain), Mueller Hinton agar, inoculum 10⁶ CFU/ml, 37°C, 16 hours) was 100 µg/mL (≈ 163 µM). For the same compound, the MIC ([16]; K.oxytoca GN10650 (β-Lactamase-producing strain), Mueller Hinton agar, inoculum 10⁶ CFU/ml, 37°C, 16 hours) was 0.05 µg/mL (≈ 0.0816 µM), the MIC ([17]; PCI602, K.pneumoniae PCI-602, Mueller Hinton agar, inoculum 10⁶ CFU/ml, 37°C, 16 hours) was < 0.006 µg/mL and the MIC ([18]; NIHJJC2, E.coli NIHJ JC2, Mueller Hinton agar, inoculum 10⁶ CFU/ml, 37°C, 16 hours) was 0.1 µg/mL (≈ 0.163 µM). It also gave an MIC [19] of 0.0125 µg/mL (≈ 0.0204 µM), an MIC ([20]; M.luteus ATCC9341, Mueller Hinton agar, inoculum 10⁶ CFU/ml, 37°C, 16 hours) of 6.25 µg/mL (≈ 10.2 µM) and an MIC [21] of 1.56 µg/mL (≈ 2.55 µM). The MIC ([22]; S.epidermidis IAM12012, Mueller Hinton agar, inoculum 10⁶ CFU/ml, 37°C, 16 hours) was 12.5 µg/mL (≈ 20.4 µM), the MIC [23] was 0.0125 µg/mL (≈ 0.0204 µM) and the MIC ([24]; S.aureus BB5703, Mueller Hinton agar, inoculum 10⁶ CFU/ml, 37°C, 16 hours) was 50 µg/mL (≈ 81.6 µM). The MIC ([25]; NEK39, E.cloacae Nek 39 (β-Lactamase-producing strain), Mueller Hinton agar, inoculum 10⁶ CFU/ml, 37°C, 16 hours) was 0.025 µg/mL (≈ 0.0408 µM), the MIC ([26]; AK109, Ps.aeruginosa AK 109, Mueller Hinton agar, inoculum 10⁶ CFU/ml, 37°C, 16 hours) was 0.39 µg/mL (≈ 0.637 µM) and the MIC ([27]; NO.162, S.marcescens No. 16-2 (β-Lactamase-producing strain), Mueller Hinton agar, inoculum 10⁶ CFU/ml, 37°C, 16 hours) was 0.1 µg/mL (≈ 0.163 µM).
